This note sets out measurements from patent US11254686B1 (Corvus Pharmaceuticals, Inc., priority 2017, dated 2022).

What all share (type): biochemical
One assay concerns the target adenosine A2B receptor (Homo sapiens (Human), UniProt P29275). Nature of the assay: Adenosine receptor activity assay (Table 1), A2B activity. To be noted: for Ratio: A2A activity to the A2B activity, A2A/A2B; for IC50: cAMP, read-out: Ave A2B cAMP IC50.
The next assay concerns the target adenosine A2A receptor (Homo sapiens (Human), UniProt P29274). The experiment in a line: Adenosine receptor activity assay (Table 1), A2A activity. As to conditions: cAMP; read-out: Ave A2A cAMP IC50.
The target in a further assay is adenosine A1 receptor (Homo sapiens (Human), UniProt P30542). Nature of the assay: Adenosine receptor activity assay (Table 1), A1 cAMP.
The target of the next assay is adenosine A3 receptor (Homo sapiens (Human), UniProt P0DMS8). Nature of the assay: Adenosine receptor activity assay (Table 1), A3 cAMP.
adenosine A3 receptor, sequence (P0DMS8 whole entry): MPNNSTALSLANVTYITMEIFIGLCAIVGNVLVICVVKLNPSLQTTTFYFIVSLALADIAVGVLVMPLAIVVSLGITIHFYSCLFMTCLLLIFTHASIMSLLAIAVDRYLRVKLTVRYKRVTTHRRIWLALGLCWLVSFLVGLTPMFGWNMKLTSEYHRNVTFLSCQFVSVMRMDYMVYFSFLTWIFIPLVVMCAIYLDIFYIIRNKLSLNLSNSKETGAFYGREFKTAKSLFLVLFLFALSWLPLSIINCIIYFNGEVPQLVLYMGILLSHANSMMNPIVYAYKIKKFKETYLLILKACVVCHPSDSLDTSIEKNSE

adenosine A2A receptor, sequence (P29274 whole entry): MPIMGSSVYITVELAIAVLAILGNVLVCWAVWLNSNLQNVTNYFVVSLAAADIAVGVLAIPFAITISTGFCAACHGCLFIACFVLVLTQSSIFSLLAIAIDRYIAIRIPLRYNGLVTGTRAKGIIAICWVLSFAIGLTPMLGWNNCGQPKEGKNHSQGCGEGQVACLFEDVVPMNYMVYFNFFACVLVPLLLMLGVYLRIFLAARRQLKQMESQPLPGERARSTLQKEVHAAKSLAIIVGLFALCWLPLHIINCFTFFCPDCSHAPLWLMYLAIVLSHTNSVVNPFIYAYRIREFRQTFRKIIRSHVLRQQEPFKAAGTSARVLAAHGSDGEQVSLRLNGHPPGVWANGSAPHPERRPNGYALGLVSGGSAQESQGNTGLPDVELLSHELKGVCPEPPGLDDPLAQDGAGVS
adenosine A1 receptor, sequence (P30542 whole entry): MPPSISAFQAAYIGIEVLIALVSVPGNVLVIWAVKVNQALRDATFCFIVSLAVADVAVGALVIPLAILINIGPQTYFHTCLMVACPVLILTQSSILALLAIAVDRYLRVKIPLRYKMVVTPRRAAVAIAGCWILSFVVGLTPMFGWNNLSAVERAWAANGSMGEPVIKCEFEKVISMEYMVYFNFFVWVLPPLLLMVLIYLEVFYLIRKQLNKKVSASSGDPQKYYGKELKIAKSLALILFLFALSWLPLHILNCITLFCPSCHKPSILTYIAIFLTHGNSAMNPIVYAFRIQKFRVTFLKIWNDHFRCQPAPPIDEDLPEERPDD
adenosine A2B receptor, sequence (P29275 whole entry): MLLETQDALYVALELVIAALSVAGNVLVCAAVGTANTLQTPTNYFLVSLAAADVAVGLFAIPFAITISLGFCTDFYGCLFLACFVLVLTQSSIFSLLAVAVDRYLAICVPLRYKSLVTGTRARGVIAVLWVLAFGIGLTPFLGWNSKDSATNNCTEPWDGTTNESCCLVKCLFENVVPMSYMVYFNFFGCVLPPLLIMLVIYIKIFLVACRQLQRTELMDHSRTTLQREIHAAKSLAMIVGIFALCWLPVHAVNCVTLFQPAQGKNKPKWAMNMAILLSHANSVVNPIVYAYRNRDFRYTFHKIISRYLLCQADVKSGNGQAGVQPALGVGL

Consider “N-(tert-Butoxy)-1-(2-(((S)-1-(5-fluoropyridin-3-yl)ethyl)amino)-6-methylthieno[3,2-d]pyrimidine-4-carbonyl)pyrrolidine-3-carboxamide [Example Z602]”, for which, at adenosine A2B receptor, the Ratio worked out at 0.49. Also, the IC50 at adenosine A2B receptor is 0.01 to 0.05 µM; on adenosine A2A receptor, below 0.01 µM; against adenosine A1 receptor, above 0.5 µM; against adenosine A3 receptor, 0.1 to 0.5 µM.
On to `C[C@H](Nc1nc(C(=O)N2CC(NC(=O)C(C)(C)C(F)(F)F)C2)c2sccc2n1)c1cncc(F)c1` [Example Z606, (S)-3,3,3-Trifluoro-N-(1-(2-((1-(5-fluoropyridin-3-yl)ethyl)amino)thieno[3,2-d]pyrimidine-4-carbonyl)azetidin-3-yl)-2,2-dimethylpropanamide], for which the Ratio at adenosine A2B receptor was found to be 0.47. In addition, the IC50 is below 0.01 µM at adenosine A2B receptor, below 0.01 µM at adenosine A2A receptor, above 0.5 µM at adenosine A1 receptor and 0.1 to 0.5 µM on adenosine A3 receptor.
For `C[C@H](Nc1nc(C(=O)N2CC(NC(=O)[C@H]3CC[C@H](C)CC3)C2)c2sccc2n1)c1cncc(F)c1` [Example Z639, Trans-N-(1-(2-(((S)-1-(5-fluoropyridin-3-yl)ethyl)amino)thieno[3,2-d]pyrimidine-4-carbonyl)azetidin-3-yl)-4-methylcyclohexane-1-carboxamide], on adenosine A2B receptor, the Ratio stood at 0.98. Also, the IC50 at adenosine A2B receptor is 0.01 to 0.05 µM; at adenosine A2A receptor it was 0.01 to 0.05 µM; on adenosine A1 receptor, above 0.5 µM; at adenosine A3 receptor, 0.1 to 0.5 µM.
For `C[C@H](Nc1nc(C(=O)N2CC(NC(=O)C3(C)CCOC3)C2)c2sccc2n1)c1cncc(F)c1` (stereo partly drawn) [Example Z608, N-(1-(2-(((S)-1-(5-Fluoropyridin-3-yl)ethyl)amino)thieno[3,2-d]pyrimidine-4-carbonyl)azetidin-3-yl)-3-methyltetrahydrofuran-3-carboxamide], the Ratio on adenosine A2B receptor was 0.42. Further, the IC50 was 0.01 to 0.05 µM on adenosine A2B receptor, below 0.01 µM at adenosine A2A receptor, above 0.5 µM on adenosine A1 receptor and above 0.5 µM against adenosine A3 receptor.
For `C[C@H](Nc1nc(C(=O)N2CC(NC(=O)C34CCC(CC3)CC4)C2)c2sccc2n1)c1cncc(F)c1` [Example Z637, (S)—N-(1-(2-((1-(5-Fluoropyridin-3-yl)ethyl)amino)thieno[3,2-d]pyrimidine-4-carbonyl)azetidin-3-yl)bicyclo[2.2.2]octane-1-carboxamide], the Ratio on adenosine A2B receptor is recorded as 0.13. Further, the 50% inhibitory concentration (IC50) is 0.01 to 0.05 µM on adenosine A2B receptor, below 0.01 µM at adenosine A2A receptor, above 0.5 µM at adenosine A1 receptor and 0.01 to 0.05 µM against adenosine A3 receptor.
For the compound `C[C@H](Nc1nc(C(=O)N2CC(NC(=O)c3cccc(Cl)c3)C2)c2sccc2n1)c1cncc(F)c1` [Example Z615, (S)-3-Chloro-N-(1-(2-((1-(5-fluoropyridin-3-yl)ethyl)amino)thieno[3,2-d]pyrimidine-4-carbonyl)azetidin-3-yl)benzamide], the Ratio on adenosine A2B receptor is 2.10. Moreover, the IC50 was below 0.01 µM at adenosine A2B receptor, below 0.01 µM on adenosine A2A receptor, above 0.5 µM against adenosine A1 receptor and 0.1 to 0.5 µM on adenosine A3 receptor.
Turning to `C[C@H](Nc1nc(C(=O)N2CC(NC(=O)C3CCC(F)(F)CC3)C2)c2sccc2n1)c1cncc(F)c1` [Example Z640, (S)-4,4-Difluoro-N-(1-(2-((1-(5-fluoropyridin-3-yl)ethyl)amino)thieno[3,2-d]pyrimidine-4-carbonyl)azetidin-3-yl)cyclohexane-1-carboxamide], on adenosine A2B receptor, the Ratio was found to be 1.24. Moreover, the IC50 is 0.01 to 0.05 µM on adenosine A2B receptor, 0.01 to 0.05 µM on adenosine A2A receptor, above 0.5 µM on adenosine A1 receptor and 0.1 to 0.5 µM on adenosine A3 receptor.
With `C[C@H](Nc1nc(C(=O)N2CC(NC(=O)c3ccccc3)C2)c2sccc2n1)c1cncc(F)c1` [Example Z601, (S)—N-(1-(2-((1-(5-Fluoropyridin-3-yl)ethyl)amino)thieno[3,2-d]pyrimidine-4-carbonyl)azetidin-3-yl)benzamide], the Ratio at adenosine A2B receptor is listed as 0.90. Further, the IC50 on adenosine A2B receptor was 0.01 to 0.05 µM; at adenosine A2A receptor, 0.01 to 0.05 µM; at adenosine A1 receptor, above 0.5 µM; at adenosine A3 receptor, 0.1 to 0.5 µM.
With `C[C@H](Nc1nc(C(=O)N2CC(NC(=O)C3(C#N)CC3)C2)c2sccc2n1)c1cncc(F)c1` [Example Z636, (S)-1-Cyano-N-(1-(2-((1-(5-fluoropyridin-3-yl)ethyl)amino)thieno[3,2-d]pyrimidine-4-carbonyl)azetidin-3-yl)cyclopropane-1-carboxamide], the Ratio on adenosine A2B receptor turned out to be 3.72. Further, the IC50 at adenosine A2B receptor is 0.01 to 0.05 µM; on adenosine A2A receptor, 0.05 to 0.1 µM; on adenosine A1 receptor, above 0.5 µM; against adenosine A3 receptor it was above 0.5 µM.
In the case of `Cc1cc(C(=O)NC2CN(C(=O)c3nc(N[C@@H](C)c4cncc(F)c4)nc4ccsc34)C2)c(C)o1` [Example Z647, (S)—N-(1-(2-((1-(5-Fluoropyridin-3-yl)ethyl)amino)thieno[3,2-d]pyrimidine-4-carbonyl)azetidin-3-yl)-2,5-dimethylfuran-3-carboxamide], the Ratio on adenosine A2B receptor was found to be 1.16. Moreover, the IC50 on adenosine A2B receptor is 0.01 to 0.05 µM; on adenosine A2A receptor, 0.01 to 0.05 µM; on adenosine A1 receptor it was above 0.5 µM; against adenosine A3 receptor, 0.1 to 0.5 µM.
For `C[C@H](Nc1nc(C(=O)N2CC(NC(=O)C3(C(F)(F)F)CCC3)C2)c2sccc2n1)c1cncc(F)c1` [Example Z643, (S)—N-(1-(2-((1-(5-Fluoropyridin-3-yl)ethyl)amino)thieno[3,2-d]pyrimidine-4-carbonyl)azetidin-3-yl)-1-(trifluoromethyl)cyclobutane-1-carboxamide], the Ratio at adenosine A2B receptor was 0.19. For the same compound, the IC50 on adenosine A2B receptor was 0.01 to 0.05 µM; on adenosine A2A receptor, below 0.01 µM; on adenosine A1 receptor it was above 0.5 µM; against adenosine A3 receptor it was 0.1 to 0.5 µM.
Consider `COc1cccc(C(=O)NC2CN(C(=O)c3nc(N[C@@H](C)c4cncc(F)c4)nc4ccsc34)C2)c1` [Example Z635, (S)—N-(1-(2-((1-(5-Fluoropyridin-3-yl)ethyl)amino)thieno[3,2-d]pyrimidine-4-carbonyl)azetidin-3-yl)-3-methoxybenzamide], for which the Ratio on adenosine A2B receptor came to 2.06. For the same compound, the IC50 on adenosine A2B receptor is 0.01 to 0.05 µM; on adenosine A2A receptor it was 0.01 to 0.05 µM; against adenosine A1 receptor, above 0.5 µM; at adenosine A3 receptor, 0.1 to 0.5 µM.
With `Cc1cccc(C(=O)NC2CN(C(=O)c3nc(N[C@@H](C)c4cncc(F)c4)nc4ccsc34)C2)c1` [Example Z626, (S)—N-(1-(2-((1-(5-Fluoropyridin-3-yl)ethyl)amino)thieno[3,2-d]pyrimidine-4-carbonyl)azetidin-3-yl)-3-methylbenzamide], on adenosine A2B receptor, the Ratio was found to be 0.85. For the same compound, the IC50 on adenosine A2B receptor is 0.01 to 0.05 µM; on adenosine A2A receptor, below 0.01 µM; against adenosine A1 receptor, above 0.5 µM; against adenosine A3 receptor, 0.1 to 0.5 µM.
For `C[C@H](Nc1nc(C(=O)N2CC(NC(=O)c3cccc(C(F)(F)F)c3)C2)c2sccc2n1)c1cncc(F)c1` [Example Z633, (S)—N-(1-(2-((1-(5-Fluoropyridin-3-yl)ethyl)amino)thieno[3,2-d]pyrimidine-4-carbonyl)azetidin-3-yl)-3-(trifluoromethyl)benzamide], the Ratio at adenosine A2B receptor is on record as 1.62. Besides, the half-inhibitory concentration (IC50) on adenosine A2B receptor was below 0.01 µM; at adenosine A2A receptor, 0.01 to 0.05 µM; against adenosine A1 receptor, above 0.5 µM; at adenosine A3 receptor it was 0.1 to 0.5 µM.
